Tested on: Staphylococcus epidermidis biofilm
Experiment: In-vitro biofilm microtitre plate assay, regrowth of biofilm after 1 minute treatment (growth index, GRI)
Type: cell-based
Conditions: conclusion in words from normalised GRI of soap + clay + antibacterial combinations
Protocol: A biofilm based microtitre plate assay was used to determine the antibacterial efficacy of the test suspensions. The efficacy is measured in terms of an index called the growth index [GRI].
An axillary isolate of Staphylococcus epidermidis was used for all the studies. The isolate was maintained on sterile CYAgar [Blood agar base 2—42 gm.1^−1, dextrose—2 gm.1^−1, yeast extract—3 gm.1^−1, polysorbate 80—5 gm.1^−1]. 24 hrs prior to the study, the isolate was subcultured onto fresh sterile CYAgar and incubated at 37° C. […]
Standardization of biofilm in terms of its attachment to polystyrene wells was initially carried out by crystal violet staining and quantification of cell numbers. […]
A kinetic assay was performed to measure the regrowth of the biofilm in an iEMS reader using the Thermo Labsystems Ascent Software™. Readings were recorded at 37° C. for 24 hrs on an hourly basis at 620 nm.
Growth of bacteria is represented by 4 phases—lag phase, exponential phase, stationary phase and death phase. […] The cumulative effect of the antibacterial over the placebo effect can be determined by the product of the increase in the time taken to reach the mid log phase from the control, and the decrease in the cell density after 24 hrs of growth. […]

Row | Structure (SMILES) | synergistic benefit in antibacterial efficacy
1 | O=C(Nc1ccc(Cl)cc1)Nc1ccc(Cl)c(Cl)c1 [TCC, 3,4,4′ trichlorocarbanilide] | do not provide similar synergistic benefit
2 | Oc1cc(Cl)ccc1Oc1ccc(Cl)cc1Cl [TCN, 4,2′,4′-trichloro-2-hydroxy diphenyl ether] | do not provide similar synergistic benefit

Reference: patent US20060111259A1, “Detergent composition” (Conopco Inc, d/b/a UNILEVER, priority 2004, published 2006)
